Measurements reported in patent US7883893B2, “Method to assay test substances” (priority 2005, dated 2011).
Where “and” joins values, the source holds several entries; their conditions need not be identical. Identical values can stand only once. Entries after “also recorded” stand apart in the source; their conditions may differ.

How the values were obtained:
Format in all cases: cell-based
Kir2.1Y channel [1] = experiment: FRAC: recovery of Kir2.1Y channel activity (Rb+ efflux) after MTSET chemobleaching
Excerpt: To assay the transit time of nacently surfaced receptor, we first modify, inhibit, or change (pulse) accessible functional molecules on the cell surface and then monitor the recovery of the original function/activity at subsequent time points (chase). One thus may determine the time required to populate the cell surface with newly inserted cell surface molecules (FIG. 1). Designing versions of this assay involves consideration of at least four factors. (i) A functional assay preferably monitors activity predominantly or only from molecules on the cell surface. […] (iii) The activity detection should be relatively short compared with the time required to repopulate the cell surface with functional molecules. (iv) The pulse should be rapid, quantitative, and optionally irreversible, thereby allowing detection of the activity contributed only by the newly arrived (or newly activated) proteins on the cell surface. These are considerations only, rather than mandatory properties. Deviation from one of these considerations may involve compensation by another. Furthermore, one of ordinary skill in the art will appreciate that treatment of cell surfaces can be restricted to a desirable area, such as the apical surface of epithelial cells. Thus, spatially restricted populations of cell surface receptors can be affected.
Rb^+ Flux Assay and Atomic Absorption Spectrometry. All assays shown were performed at room temperature in poly(L-lysine) (0.1 mg/ml)-coated 24-well microplates. For experiments with transiently transfected cells, ˜1×10^5 cells were seeded in each well the day before transfection (0.3 μg of DNA per well). Sodium butyrate at 5 mM was added 6-8 h after transfection. The assays were performed 24 h after transfection. […]
Rb^+ Efflux. […] The Rb^+ concentration in each sample was analyzed using the ICR 8000. Rb^+ efflux (%) was determined as: 100%×[Rb^+]sup/([Rb^+]sup+[Rb^+]lysate) where [Rb^+]sup represents the Rb^+ concentration in the supernatant, and [Rb^+]lysate represents the Rb^+ concentration in the cell lysate. […]

Kir2.1Y channel [2] = experiment: Rb+ efflux of 293 cells stably expressing Kir2.1Y incubated with BFA without MTSET treatment
Experimental: (§1) Rb^+ Flux Assay and Atomic Absorption Spectrometry. All assays shown were performed at room temperature in poly(L-lysine) (0.1 mg/ml)-coated 24-well microplates. For experiments with transiently transfected cells, ˜1×10^5 cells were seeded in each well the day before transfection (0.3 μg of DNA per well). Sodium butyrate at 5 mM was added 6-8 h after transfection. The assays were performed 24 h after transfection. HEK 293 cells stably expressing either Kir2.1 or Kir2.1Y channel were seeded with a cell density of 2×10^5 cells per well. To enhance expression, 5 mM sodium butyrate was added 4-6 h after seeding. Cells then were cultured continuously for 16-20 h before experiments.
Rb^+ Efflux. To load Rb^+ into cells, we incubated cells in 0.5 ml per well 50/50 DMEM/F12 complete growth medium containing ˜5 mM RbCl at 37° C. for 3-4 h. Cells then were washed twice quickly with 1 ml per well non-Rb^+ medium to remove residual Rb^+. […] The Rb^+ concentration in each sample was analyzed using the ICR 8000. Rb^+ efflux (%) was determined as: 100%×[Rb^+]sup/([Rb^+]sup+[Rb^+]lysate) where [Rb^+]sup represents the Rb^+ concentration in the supernatant, and [Rb^+]lysate represents the Rb^+ concentration in the cell lysate. […]

Kir2.1 = experiment: Rb+ efflux of 293 cells stably expressing Kir2.1 incubated with BFA without MTSET treatment; conditions: BFA 3 h, absence of MTSET treatment (data not shown)
Experimental: as §1
Rb^+ Efflux. […] The Rb^+ concentration in each sample was analyzed using the ICR 8000. Rb^+ efflux (%) was determined as: 100%×[Rb^+]sup/([Rb^+]sup+[Rb^+]lysate) where [Rb^+]sup represents the Rb^+ concentration in the supernatant, and [Rb^+]lysate represents the Rb^+ concentration in the cell lysate.
In the case of Kir2.1, we observed reproducible ˜30% reduction over the same period of incubation (data not shown). […] For Kir2.1Y, the combination of quantitative elimination of surface channel activity by MTSET, the >90% activity recovery, and little detectable reduction of Rb^+ efflux in the presence of BFA then would predict a 2-fold increase of protein signal on the cell surface. […]

Kir2.1Y channel [3] = experiment: Rb+ influx assay of HEK 293 cells transiently transfected with Kir2.1Y, with MTSET treatment; conditions: MTSET treatment before the assay (2.5 mM per FIG. 2 legend)
Experimental: as §1
Rb^+ Influx. To perform the assay, cells first were incubated in 50/50 DMEM/F12 complete growth medium containing 5 mM RbCl for the indicated time periods before the medium was quickly aspirated. Cells then were washed twice quickly with non-Rb^+ DMEM/F12 medium and lysed with 0.5 ml of 0.1% SDS per well. The Rb^+ concentration in cell lysates was measured by atomic absorption spectrophotometry (ICR8000, Aurora Biomed, Vancouver), according to the manufacturer's user manual.
(§2) To monitor the specificity of the Rb^+ assay and the effectiveness of Rb^+ detection by atomic absorption spectrometry (19), we measured the Rb^+ uptake signals of transiently transfected cells at different times of incubation. […]

Kir2.1Y channel [4] = experiment: Rb+ efflux assay of 293 cells stably expressing Kir2.1Y, with MTSET treatment; conditions: stable Kir2.1Y line, FIG. 2c
Experimental: as §1
Rb^+ Efflux. To load Rb^+ into cells, we incubated cells in 0.5 ml per well 50/50 DMEM/F12 complete growth medium containing ˜5 mM RbCl at 37° C. for 3-4 h. […] The Rb^+ concentration in each sample was analyzed using the ICR 8000. Rb^+ efflux (%) was determined as: 100%×[Rb^+]sup/([Rb^+]sup+[Rb^+]lysate) where [Rb^+]sup represents the Rb^+ concentration in the supernatant, and [Rb^+]lysate represents the Rb^+ concentration in the cell lysate.
as §2

wild-type Kir2.1 = target: T1, wild-type Kir2.1 (Homo sapiens, UniProt P63252); experiment: Rb+ flux assay of wild-type Kir2.1 with MTSET
T1 sequence (P63252 1-427): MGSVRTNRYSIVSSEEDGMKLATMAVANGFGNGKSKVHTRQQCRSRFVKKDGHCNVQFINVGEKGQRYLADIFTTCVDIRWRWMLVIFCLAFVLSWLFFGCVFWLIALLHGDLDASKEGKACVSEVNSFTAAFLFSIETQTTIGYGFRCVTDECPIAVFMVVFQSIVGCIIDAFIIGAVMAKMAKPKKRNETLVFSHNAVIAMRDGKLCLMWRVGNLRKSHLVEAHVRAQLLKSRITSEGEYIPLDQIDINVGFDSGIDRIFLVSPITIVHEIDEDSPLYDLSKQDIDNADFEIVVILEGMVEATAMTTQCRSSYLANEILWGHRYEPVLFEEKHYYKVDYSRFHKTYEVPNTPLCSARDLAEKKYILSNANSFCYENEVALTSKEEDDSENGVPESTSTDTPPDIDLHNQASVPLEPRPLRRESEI
Excerpt: (§3) Earlier reports using electrophysiological recording have shown that membrane-nonpermeable MTS reagents such as MTSET reduce or abolish the current of Kir2.1 by covalently modifying the reduced form of cysteine residues already present in the channel protein or introduced by site-directed mutagenesis (18). It is not known whether or to what extent the modifications by MTS reagents will affect channel activity measured by a Rb^+ flux assay. We tested several cysteine positions of Kir2.1 mutants using MTSET, a positively charged cysteinyl sulfhydryl-specific reagent.

Kir2.1 mutation of C149 = experiment: Electrophysiological recording and Rb+ assay of Kir2.1 C149 mutant with MTSET; conditions: electrophysiological recording and Rb+ assay (data not shown)
Excerpt: as §3

`C[C@H]1CCC/C=C/[C@@H]2C[C@H](O)C[C@H]2[C@H](O)/C=C/C(=O)O1` [BFA, Brefeldin A] was tested, and the activity recovery (Kir2.1Y channel [1]; 1 μM BFA at 37° C. for 3 h, added immediately after 5-min MTSET treatment (FIG. 5a)) was < 20% and 20%, the “BFA concentration at which the effect reaches a plateau” value (Kir2.1Y channel [1]; recovery at 3 h, 37° C., FIG. 5b) was greater than 0.6 µM and the “sensitivity of surface channel activity to BFA concentrations” value (Kir2.1Y channel [2]; absence of MTSET treatment, 3-h incubation, FIG. 5b) was “no sensitivity”. The “effect on activity of channels already on the cell surface (Rb+ efflux)” value (Kir2.1Y channel [2]; without MTSET treatment, 3-h incubation with BFA) was “did not affect the activity; also recorded: did not result in a detectable reduction” and the “reduction of Rb+ efflux activity” value (Kir2.1) was roughly 30%.

For `C[N+](C)(C)CCSS(C)(=O)=O.[Br-]` [MTSET, [2-(trimethylammonium)ethyl]methanethiosulfonate bromide], the “specific Rb+ uptake signal abolished” value (Kir2.1Y channel [3]) was greater than 80%, the “Rb+ efflux signal after MTSET treatment” value (Kir2.1Y channel [4]) was “only background signals were observed” and the “effect of MTSET on channel activity” value (wild-type Kir2.1) was “quantitatively nullified”. The “sensitivity to MTSET” value (Kir2.1 mutation of C149) was “loss of sensitivity”.

Work on `C[C@@H]1C[C@@H]([C@H](O)CC2CC(=O)NC(=O)C2)C(=O)[C@@H](C)C1` [cycloheximide] yielded an activity recovery (Kir2.1Y channel [1]; cycloheximide in FRAC experiments (data not shown)) of 40%.
